Laboratory results taken from ChEMBL document CHEMBL4007389, “Discovery and evaluation of inhibitors to the immunosuppressive enzyme indoleamine 2,3-dioxygenase 1 (IDO1): Probing the active site-inhibitor interactions” (Eur J Med Chem, 2017).

Columns and labels:
[1] = molecular target: Indoleamine 2,3-dioxygenase 1 (Homo sapiens, UniProt P14902, S167A)
Homo sapiens = organism: Homo sapiens; experiment: Selectivity ratio of IC50 for recombinant human IDO1 S167A mutant expressed in Escherichia coli SG13009(pREP4) to IC50 for recombinant human IDO1 expressed in bacterial expression system
[2] = molecular target: T1, Indoleamine 2,3-dioxygenase 1 (Homo sapiens, UniProt P14902); experiment: Inhibition of recombinant human IDO1 expressed in bacterial expression system using L-Tryptophan as substrate after 25 mins in absence of GSH and presence of tween20 by fluorescence assay
Target sequence in this assay (P14902 whole entry): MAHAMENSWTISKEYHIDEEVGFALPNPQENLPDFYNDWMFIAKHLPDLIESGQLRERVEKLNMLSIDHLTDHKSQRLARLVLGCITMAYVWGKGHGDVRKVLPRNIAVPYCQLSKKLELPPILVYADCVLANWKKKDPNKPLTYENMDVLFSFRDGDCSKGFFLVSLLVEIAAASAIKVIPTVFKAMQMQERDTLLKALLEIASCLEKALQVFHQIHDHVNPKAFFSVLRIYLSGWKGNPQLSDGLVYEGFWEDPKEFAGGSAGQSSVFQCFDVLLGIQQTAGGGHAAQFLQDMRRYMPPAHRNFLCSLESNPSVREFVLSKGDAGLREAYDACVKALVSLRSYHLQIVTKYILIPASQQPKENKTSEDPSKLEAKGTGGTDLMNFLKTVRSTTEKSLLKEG

[3] = molecular target: T1, Indoleamine 2,3-dioxygenase 1; experiment: Inhibition of recombinant human IDO1 expressed in bacterial expression system at 100 uM using L-Tryptophan as substrate after 25 mins by fluorescence assay relative to control
Target sequence in this assay (P14902 whole entry, looked up): as the sequence (P14902 whole entry) above

[4] = system: Indoleamine 2,3-dioxygenase 1 (Homo sapiens), P14902 [S167A]; experiment: Inhibition of recombinant human IDO1 S167A mutant expressed in Escherichia coli SG13009(pREP4) at 20 uM using L-Tryptophan as substrate after 25 mins by fluorescence assay relative to control
Sequence of Indoleamine 2,3-dioxygenase 1 (Homo sapiens), P14902 [S167A] (P14902 whole entry S167A): as the sequence (P14902 whole entry) above, with S167A counted along it

[5] = molecular target: T1, Indoleamine 2,3-dioxygenase 1; experiment: Inhibition of recombinant human IDO1 expressed in bacterial expression system at 200 uM using L-Tryptophan as substrate after 25 mins by fluorescence assay relative to control
Target sequence in this assay (P14902 whole entry, looked up): as the sequence (P14902 whole entry) above

[6] = molecular target: T1, Indoleamine 2,3-dioxygenase 1; experiment: Inhibition of full length recombinant human His-tagged IDO1 expressed in mouse LLTC cells using L-tryptophan as substrate after 24 hrs; assay type: cell-based
Target sequence in this assay (P14902 whole entry): as above

[7] = Cytotoxicity against mouse LLTC cells assessed as reduction in cell viability after 24 hrs by MTT assay; assay type: cell-based; conditions: read-out: LC50
[8] = system: Indoleamine 2,3-dioxygenase 1 (Homo sapiens), P14902 [C129A]; experiment: Inhibition of recombinant human IDO1 C129A mutant expressed in Escherichia coli SG13009(pREP4) at 20 uM using L-Tryptophan as substrate after 25 mins by fluorescence assay relative to control
Sequence of Indoleamine 2,3-dioxygenase 1 (Homo sapiens), P14902 [C129A] (P14902 whole entry C129A): as the sequence (P14902 whole entry) above, with C129A counted along it

[9] = molecular target: Indoleamine 2,3-dioxygenase 1 (Homo sapiens, UniProt P14902, C129A); experiment: Inhibition of recombinant human IDO1 C129A mutant expressed in Escherichia coli SG13009(pREP4) using L-Tryptophan as substrate after 25 mins by fluorescence assay
Sequence of Indoleamine 2,3-dioxygenase 1 (Homo sapiens, UniProt P14902, C129A) (P14902 whole entry C129A): as the sequence (P14902 whole entry) above, with C129A counted along it

[10] = molecular target: T1, Indoleamine 2,3-dioxygenase 1; experiment: Inhibition of recombinant human IDO1 expressed in bacterial expression system at 250 uM using L-Tryptophan as substrate after 25 mins by fluorescence assay relative to control
Target sequence in this assay (P14902 whole entry, looked up): as the sequence (P14902 whole entry) above

[11] = system: Indoleamine 2,3-dioxygenase 1 (Homo sapiens), P14902 [S167A]; experiment: Inhibition of recombinant human IDO1 S167A mutant expressed in Escherichia coli SG13009(pREP4) at 400 uM using L-Tryptophan as substrate after 25 mins by fluorescence assay relative to control
[12] = molecular target: T1, Indoleamine 2,3-dioxygenase 1; experiment: Inhibition of recombinant human IDO1 expressed in bacterial expression system at 350 uM using L-Tryptophan as substrate after 25 mins by fluorescence assay relative to control
Target sequence in this assay (P14902 whole entry, looked up): as the sequence (P14902 whole entry) above

[13] = molecular target: T1, Indoleamine 2,3-dioxygenase 1; experiment: Inhibition of recombinant human IDO1 expressed in bacterial expression system at 400 uM using L-Tryptophan as substrate after 25 mins by fluorescence assay relative to control
Target sequence in this assay (P14902 whole entry, looked up): as the sequence (P14902 whole entry) above

[14] = molecular target: T1, Indoleamine 2,3-dioxygenase 1; experiment: Inhibition of recombinant human IDO1 expressed in bacterial expression system using L-Tryptophan as substrate after 25 mins in absence of GSH and tween20 by fluorescence assay
Target sequence in this assay (P14902 whole entry): as above

[15] = molecular target: T1, Indoleamine 2,3-dioxygenase 1; experiment: Inhibition of recombinant human IDO1 expressed in bacterial expression system using L-Tryptophan as substrate after 25 mins in presence of GSH and tween20 by fluorescence assay
Target sequence in this assay (P14902 whole entry): as above

Sequence of Indoleamine 2,3-dioxygenase 1 (Homo sapiens, UniProt P14902, S167A) (P14902 whole entry S167A): as the sequence (P14902 whole entry) above, with S167A counted along it

| SMILES | IC50 [1] | Ratio IC50 (Homo sapiens) | IC50 [2] | also measured |
| --- | --- | --- | --- | --- |
| Cc1ccccc1-c1nc2c3ccccc3c3ccccc3c2[nH]1 | 464 µM | 1 | 512 µM |  |
| CC(=O)NC1=C(c2ccccc2)C(=O)c2ccccc21 |  |  |  | inhibition [3]: 14% |
| O=[N+]([O-])c1ccc(Sc2cccc[n+]2[O-])c2nonc12 | 108 to 1000 µM | 5 to 16.7 | 24 to 60 µM | inhibition [4]: -1% |
| COc1ccc(Nc2ccc([N+](=O)[O-])c3nonc23)cc1 |  |  | 96 µM |  |
| COc1c(NC(C)=O)c2ccccc2c2ccccc12 | 1000 µM | 28.1 | 35.6 µM | inhibition [4]: -9% |
| O=C1c2ccccc2CC1c1ccccc1 (configuration not stated) |  |  |  | inhibition [5]: 21% |
| CCn1c2ccccc2nc2cc3c(cc21)c(Cl)c(=O)c1ccccc13 | 980 µM | 23.1 | 42.5 µM | inhibition [4]: 2% |
| COc1ccc(C2=[N+]([O-])c3ccccc3C2=O)cc1 | 63 µM | 39 | 1.6 µM | IC50 [6]: 2.3 µM; CC50 at 24 h [7]: 42 µM |
| Cn1c2ccccc2c2ccc3c(c21)C(=O)C=CC3=O | 1000 µM | 23.5 | 42.5 µM | inhibition [4]: -2% |
| O=[N+]([O-])c1ccc(NCSc2ccc(Cl)cc2)cc1 | 0.1 µM | 0.125 | 0.8 µM | CC50 at 24 h [7]: 40 µM |
| NNC(=O)CNc1cccc(Br)c1 |  |  | 1000 µM | inhibition [8]: 30.8%; IC50 [9]: 44.9 µM |
| Cc1cc(I)ccc1Nc1cc2nonc2cc1C(=O)O | 42 µM | 1 | 41 µM |  |
| O=[N+]([O-])c1ccccc1NCSc1ccc(Cl)cc1 |  |  | 63 µM | IC50 [6]: 6.3 µM; CC50 at 24 h [7]: 52 µM |
| NC1=C(c2ccccc2)C(=O)c2ccccc21 |  |  |  | inhibition [3]: 14% |
| Cc1ccc(NCSc2ccc(Cl)cc2)cc1 |  |  |  | inhibition [10]: -1% |
| Cc1cc(I)ccc1Nc1cc2no[n+]([O-])c2cc1C(=O)O |  | > 44 | 23 µM | inhibition [11]: 2% |
| O=[N+]([O-])c1cccc2nsnc12 | 614 µM | 2 | 320 µM |  |
| O=[N+]([O-])c1ccc(Nc2ccc(Br)cc2)c2nonc12 |  |  | 68 µM |  |
| COC12C(COC(N)=O)C3=C(C(=O)C(C)=C(N)C3=O)N1CC1C2N1C (configuration not stated) | 1000 µM | 63.6 | 15.7 µM | inhibition [4]: -4% |
| COc1ccc(C2=Nc3ccccc3C2=O)cc1 |  |  |  | inhibition [12]: 5% |
| O=C1c2ccccc2C(=O)C1c1ccccc1 |  |  |  | inhibition [13]: 20% |
| Sc1ccc(Cl)cc1 | 3.5 µM | 0.5 | 7.9 µM | IC50 [6]: 9.2 µM; CC50 at 24 h [7]: 35 µM |
| c1ccc(NCCSc2nc3ccccc3s2)cc1 |  |  | 115 µM | inhibition [8]: 70.8%; IC50 [9]: 8.2 µM |
| Oc1ccc(-c2nc3c4ccccc4c4ccccc4c3[nH]2)cc1 |  | > 2 | 522 µM | inhibition [11]: 14% |
| O=c1c(O)cccc2cc(O)c(O)c(O)c12 [PURPUROGALLIN] | 1000 µM | 16.7 | 60 µM | inhibition [4]: -4% |

| SMILES | IC50 [1] | Ratio IC50 (Homo sapiens) | IC50 [2] | also measured |
| --- | --- | --- | --- | --- |
| O=C1C(c2ccccc2)=[N+]([O-])c2ccccc21 | 3 µM | 3 | 0.87 µM | IC50 [6]: 2.3 µM; CC50 at 24 h [7]: 14 µM |
| c1ccc(-c2c[nH]cn2)cc1 |  |  |  | CC50 at 24 h [7]: > 1150 µM |
| Fc1ccccc1-c1nc2c3ccccc3c3ccccc3c2[nH]1 | 108 µM | 0.5 | 231 µM |  |
| CC(=O)OCCn1c2nc(=O)[nH]c(=O)c-2nc2cc(C)c(C)cc21 | 1000 µM | 32 | 31.3 µM | inhibition [4]: -8% |
| COc1ccc(-c2cc3ccccc3[nH]2)cc1 |  |  |  | inhibition [5]: 16% |
| CC(=O)OC1=C(c2ccccc2)C(=O)c2ccccc21 |  |  | 266 µM |  |
| CC1=NC(SCc2ccc(Cl)cc2Cl)=NC(=O)C1 |  |  |  | IC50 [6]: 217 µM; CC50 at 24 h [7]: > 125 µM; inhibition [13]: -8% |
| c1ccc(-c2nc3c4ccccc4c4ccccc4c3[nH]2)cc1 |  |  |  | inhibition [10]: 8% |
| COc1ccc2c(c1)c1ccc3c(c1n2C)C(=O)C=CC3=O | 1000 µM | 39.3 | 25.5 µM | inhibition [4]: -5% |
| C=Cc1cc(OC)c2c(c1)c(=O)oc1c2cc(OC)c2c(O)ccc([C@@H]3O[C@H](C)[C@H](O)[C@@](C)(O)[C@H]3O)c21 | 230 µM | 10.2 | 22.6 µM | inhibition [4]: 8% |
| COc1cc2c(cc1OC)[N+]([O-])=C(c1ccccc1)C2=O | 206 to 1000 µM | 16.7 to 50 | 4.1 to 60 µM | IC50 [14]: 9.3 µM; IC50 [6]: 4.3 µM; IC50 [15]: 1.5 µM; CC50 at 24 h [7]: 25 µM; inhibition [4]: 0% |
| Cc1ccc2c(c1)c1ccc3c(c1n2C)C(=O)C=CC3=O | 1000 µM | 21.4 | 46.7 µM | inhibition [4]: -4% |
| COC(=O)c1cc(F)c2nonc2c1Nc1ccc(I)cc1F |  |  |  | inhibition [10]: 3% |
| CC1=CC(C)(C)NC(=S)N1c1cccc2cc(S(N)(=O)=O)ccc12 | 1000 µM | 36.2 | 27.6 µM | inhibition [4]: -8% |
| Oc1ccccc1-c1nc2ccccc2[nH]1 |  |  |  | inhibition [13]: 1% |
| CC[C@@H](CNc1cc(OC)cc2cccnc12)NC1CCCCC1 | 1000 µM | 18.5 | 54.1 µM | inhibition [4]: -6% |
| Cc1cccc2c1c1ccc3c(c1n2C)C(=O)C=CC3=O | 1000 µM | 28.1 | 35.6 µM | inhibition [4]: -5% |
| O/N=C1\c2ccccc2NC1c1ccccc1 (configuration not stated) | 366 µM | 1 | 510 µM |  |
| c1ccc2c(c1)Nc1ccncc1S2 |  |  | 422 µM | inhibition [8]: 38.8%; IC50 [9]: 31.6 µM |
| Cc1ccccc1-c1nc2ccccc2[nH]1 |  |  |  | inhibition [13]: -2% |
| Oc1cccc(-c2nc3c4ccccc4c4ccccc4c3[nH]2)c1 | 173 µM | 2 | 112 µM |  |
| O=C(O)c1cc(F)c2nonc2c1Nc1ccc(I)cc1F | 47 µM | 1 | 43 µM | IC50 [6]: 168 µM; CC50 at 24 h [7]: > 233 µM |
| COc1c(O)ccc2c1CN1CCc3cc4c(cc3C1C2)OCO4 (configuration not stated) | 1000 µM | 28.1 | 35.6 µM |  |
| Nc1nonc1C(=NO)Nc1ccc(F)c(Cl)c1 |  |  |  | CC50 at 24 h [7]: > 5 µM |
| O=[N+]([O-])c1ccc(Sc2ccc(F)cc2)c2nonc12 | 17 µM | 2 | 8.8 µM | IC50 [6]: 4.6 µM; CC50 at 24 h [7]: > 50 µM |
